The subject of series [1] is spontaneous hypertensive rats (SHR). Nature of the series: Myocardial fibrosis quantitation (Masson's Trichrome) in SHR on a 2.2% salt diet. The series is classed as in vivo, rat. The note with it: 4 weeks. An excerpt: Fourteen week old spontaneous hypertensive rats (SHR; Australian Animal Resources Centre, WA) on a 2.2% salt diet (Glenn Forrest Stockfeeders, WA) were randomized to the following treatment groups: 14-week control, or VB0002 infusion (20 pmol/kg/min in 20% DMSO) or vehicle control infusion (20% DMSO) for 4 weeks. VB0002 and vehicle control infusions were via Alzet osmotic minipump, which was inserted under general anaesthesia (Isoflurane 3% in oxygen) at 14 weeks.
Fourteen week old spontaneous hypertensive rats on a 2.2% salt diet were also randomized to the following treatment groups: 14-week control, or VB0003 administration (10, 100 or 500 pmol/kg/min in 5% ethanol), VB0005 administration (100 pmol/kg/min in 5% ethanol) or drinking solution (5% ethanol) administration for 4 weeks.
(§1) The 14-week control group were anaesthetized using isoflurane (3%) delivered in oxygen, then had blood sampled and hearts and kidneys harvested for quantitation of fibrosis. The remaining groups were weighed and had blood pressure measured by tail cuff plethysmography (ADI Instruments) twice weekly for a further 4 weeks. After 4 weeks treatment, rats were anaesthetized and samples collected as per the 14-week control group. Results are mean±sem for n=5 rats per group.
For quantitation of fibrosis, tissue slices ≤3 mm thick were fixed in 10% buffered formalin for 24 hours, processed and embedded in paraffin. Three μm transverse sections were stained using Masson's Trichrome. A minimum of 20 random fields at 40× magnification from transverse sections ([…]) were digitized. The degree of fibrosis was determined as a percent of field area of each digitized image using Image-Pro Plus V.5 (Media Cybernetics, Bethesda, Md., USA), and then averaged to determine the level of fibrosis for each rat.

The test system is the same in series [2]. Kind of series: Systolic blood pressure by tail cuff plethysmography in SHR on a 2.2% salt diet. The series is classed as in vivo, rat.
From the text: Fourteen week old spontaneous hypertensive rats (SHR; Australian Animal Resources Centre, WA) on a 2.2% salt diet (Glenn Forrest Stockfeeders, WA) were randomized to the following treatment groups: 14-week control, or VB0002 infusion (20 pmol/kg/min in 20% DMSO) or vehicle control infusion (20% DMSO) for 4 weeks. VB0002 and vehicle control infusions were via Alzet osmotic minipump, which was inserted under general anaesthesia (Isoflurane 3% in oxygen) at 14 weeks. […]
as §1

Where [3] appears, read: 100 pmol/kg/min in drinking solution (5% ethanol), compared to 14 week controls.
Setting [4] is: 100 pmol/kg/min in drinking solution (5% ethanol), compared to 18 week controls.
Where [5] appears, read: in 5% ethanol in the drinking solution for 4 weeks (FIG. 9:), compared to 18 week controls (p<0.0005).

Consider four compounds from patent publication US11834417B2, “Compositions for the treatment of hypertension and/or fibrosis” (Vectus Biosystems Limited, priority 2016, dated 2023).

As a reminder, the melting point is the temperature, or range, at which the solid turns liquid. As for `CC(O)Cc1c(-c2ccccc2)ncn1Cc1cccc(O)c1.Cl` (centres unmarked), the melting point is 84 to 88 °C.

Take `NC(=O)Cc1c(Cc2ccccc2)ncn1Cc1cccc(O)c1` [VB0002, 2-[4-Benzyl-1-(3-hydroxybenzyl)-1H-imidazol-5-yl]acetamide]: the melting point was 249 °C (dec.). For the same compound, the Myocardial fibrosis entry in series [1] (20 pmol/kg/min infusion via osmotic minipump, compared to 14 week controls (FIG. 10)) was “reduced”. For the same compound, in series [1] (20 pmol/kg/min infusion via osmotic minipump, compared to 18 week controls (FIG. 10)), the Myocardial fibrosis result is recorded as “reduced”. Also, in series [2] (in 20% DMSO intravenously via osmotic minipump for 4 weeks, compared to 18 week controls (FIG. 8, p<0.005)), the Systolic blood pressure entry is on record as “reduced”.

Take `CC(O)Cc1c(-c2ccccc2)ncn1Cc1cccc(O)c1` (centres unmarked) [VB0003, 3-[5-(2-hydroxypropyl)-4-phenyl-imidazol-1-ylmethyl]-phenol]: the Myocardial fibrosis entry in series [1] (10 pmol/kg/min in drinking solution (5% ethanol), compared to 18 week controls) is given as “reduced”; in series [1] (setting [3]) it was “reduced”; in series [1] (setting [4]), “reduced”; in series [1] (500 pmol/kg/min in drinking solution (5% ethanol), compared to 14 week controls), “reduced”; in series [1] (500 pmol/kg/min in drinking solution (5% ethanol), compared to 18 week controls), “reduced”. Moreover, the Systolic blood pressure entry in series [2] (setting [5]) was “reduced”.

`NC(=O)CC[C@H]1CN(c2ccccc2)CCN1c1cccc(O)c1` [VB0005, (S)-3-[1-(3-Hydroxy)phenyl-4-phenylpiperazin-2-yl]propanamide]: the Myocardial fibrosis result in series [1] (setting [3]) and in series [1] (setting [4]) was “reduced” in each case. Further, the Systolic blood pressure entry in series [2] (setting [5]) was “reduced”.
